The values below come from PubChem BioAssay AID328 (DTP/NCI, 2004).

The test system of this test is BDF1 mice, P388 leukemia ip, median survival T/C. As to the kind of experiment: NCI In Vivo Anticancer Drug Screen. Data for tumor model P388 Leukemia (intraperitoneal) in B6D2F1 (BDF1) mice. Particulars: endpoint: median survival time, higher = longer survival. The method in brief: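 Each value expresses how treatment altered survival: treated-mouse outcome over vehicle-mouse outcome, both groups bearing the transplanted tumour.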

Where [1] appears, read: dose: 200.0 mg/kg/injection, schedule: Q01DX009 (ip), vehicle: Klucel (hydroxypropylcellulose) (HPC).
The mark [2] stands for this setting: dose: 400.0 mg/kg/injection, schedule: Q01DX009 (ip), vehicle: Klucel (hydroxypropylcellulose) (HPC).
Where [3] appears, read: dose: 25.0 mg/kg/injection, schedule: Q04DX003 (ip), vehicle: saline.
[4] abbreviates: dose: 50.0 mg/kg/injection, schedule: Q04DX003 (ip), vehicle: saline.
[5] abbreviates: dose: 100.0 mg/kg/injection, schedule: Q04DX003 (ip), vehicle: saline.
Where [6] appears, read: dose: 200.0 mg/kg/injection, schedule: Q04DX003 (ip), vehicle: saline.
Setting [7] is: dose: 400.0 mg/kg/injection, schedule: Q04DX003 (ip), vehicle: saline.
Where [8] appears, read: dose: 100.0 mg/kg/injection, schedule: Q01DX009 (ip), vehicle: saline with Tween-80.
[9] abbreviates: dose: 100.0 mg/kg/injection, schedule: Q04DX003 (ip), vehicle: saline with Tween-80.
Setting [10] is: dose: 200.0 mg/kg/injection, schedule: Q01DX009 (ip), vehicle: saline with Tween-80.
[11] abbreviates: dose: 200.0 mg/kg/injection, schedule: Q04DX003 (ip), vehicle: saline with Tween-80.
Setting [12] is: dose: 400.0 mg/kg/injection, schedule: Q04DX003 (ip), vehicle: saline with Tween-80.
The mark [13] stands for this setting: dose: 400.0 mg/kg/injection, schedule: Q01DX009 (ip), vehicle: saline with Tween-80.
Where [14] appears, read: dose: 50.0 mg/kg/injection, schedule: Q01DX009 (ip), vehicle: saline with Tween-80.

“And” between values parts separate entries of the source, which are not always exact repeats. Equal entries are not always repeated. Toxic doses and inconclusive results are not listed.

On to `Cc1ccc(S(=O)(=O)N2CCC(=O)c3ccc(Cl)cc32)cc1`, for which the T/C was 100 % of control (dose: 100.0 mg/kg/injection, schedule: Q04DX003 (ip), vehicle: Klucel (hydroxypropylcellulose) (HPC)); 100 % of control under setting [1]; 104 % of control (dose: 200.0 mg/kg/injection, schedule: Q04DX003 (ip), vehicle: Klucel (hydroxypropylcellulose) (HPC)); 95 % of control under setting [2]; 104 % of control (dose: 400.0 mg/kg/injection, schedule: Q04DX003 (ip), vehicle: Klucel (hydroxypropylcellulose) (HPC)).

Consider `CC(=O)NC1(C(=O)O)CSSC1`, for which the T/C runs as follows: (dose: 12.5 mg/kg/injection, schedule: Q01DX005 (ip), vehicle: saline) 107 % of control; (dose: 25.0 mg/kg/injection, schedule: Q01DX005 (ip), vehicle: saline) 106 % of control; under setting [3], 91 % of control; (dose: 50.0 mg/kg/injection, schedule: Q01DX005 (ip), vehicle: saline) 104 % of control; under setting [4], 97 % of control; (dose: 100.0 mg/kg/injection, schedule: Q01DX005 (ip), vehicle: saline) 100 % of control. Besides, the T/C reads like this: under setting [5], 118 % of control; (dose: 200.0 mg/kg/injection, schedule: Q01DX005 (ip), vehicle: saline) 104 % of control; under setting [6], 114 % of control; (dose: 400.0 mg/kg/injection, schedule: Q01DX005 (ip), vehicle: saline) 97 % of control; under setting [7], 123 % of control.

Regarding `C/C=C1\CCC2C(=C1C)CC1C2CC=C2CC(OC(C)=O)CCC21C` (stereo not drawn), the T/C runs as follows: (dose: 100.0 mg/kg/injection, schedule: Q01DX009 (ip), vehicle: Klucel (hydroxypropylcellulose) (HPC)) 115 % of control; under setting [1], 120 % of control; under setting [2], 105 % of control.

For the molecule `COc1cccc2c1C(=O)c1c(O)c3c(c(O)c1C2=O)CC(O)(/C(C)=N/NC(=O)CC(=O)N/N=C(\C)C1(O)Cc2c(O)c4c(c(O)c2C(OC2CC(N)C(O)C(C)O2)C1)C(=O)c1c(OC)cccc1C4=O)CC3OC1CC(N)C(O)C(C)O1` (stereo not drawn), the T/C runs as follows: (dose: 3.13 mg/kg/injection, schedule: Q01DX009 (ip), vehicle: water) 157 % of control; (dose: 6.25 mg/kg/injection, schedule: Q01DX009 (ip), vehicle: water) 186 % of control.

With `O=C1C2ON=C(c3ccccc3)C2C(=O)N1OS(=O)(=O)c1ccccc1` (stereo not drawn), the T/C under setting [8] was 100 % of control; the T/C under setting [9] was 100 % of control; the T/C under setting [10] is 109 % of control; the T/C under setting [11] was 100 % of control; the T/C under setting [12] was 100 % of control.

Regarding `CCOC(=O)c1c(N)sc2c1CCN(Cc1ccccc1)C2`, the T/C under setting [8] is 104 % of control; the T/C under setting [9] is 100 % of control; the T/C under setting [10] was 95 % of control; the T/C under setting [11] is 104 % of control; the T/C under setting [13] was 119 % of control; the T/C under setting [12] is 109 % of control.

On to `CC(=O)OCC(=O)[C@@]1(O)CC[C@H]2[C@@H]3CCC4=CC(=O)C=C[C@]4(C)[C@@]3(F)[C@@H](O)C[C@@]21C`, for which the T/C is 104 % of control (dose: 12.5 mg/kg/injection, schedule: Q01DX009 (ip), vehicle: saline sonified); 109 % of control (dose: 25.0 mg/kg/injection, schedule: Q01DX009 (ip), vehicle: saline sonified); 100 % of control (dose: 50.0 mg/kg/injection, schedule: Q01DX009 (ip), vehicle: saline sonified).

As to `Oc1ccc2ccccc2c1C1=NNc2n[nH]c(=S)n2N1`, the T/C was 104 % of control (dose: 12.5 mg/kg/injection, schedule: Q04DX003 (ip), vehicle: Klucel (hydroxypropylcellulose) (HPC)); 108 % of control (dose: 25.0 mg/kg/injection, schedule: Q04DX003 (ip), vehicle: Klucel (hydroxypropylcellulose) (HPC)); 104 % of control (dose: 50.0 mg/kg/injection, schedule: Q04DX003 (ip), vehicle: Klucel (hydroxypropylcellulose) (HPC)).

As to `OCCN1CCN(CC/C=C2\c3ccccc3COc3ccc(Cl)cc32)CC1`, the T/C runs as follows: (dose: 6.25 mg/kg/injection, schedule: Q04DX003 (ip), vehicle: saline) 107 % of control; under setting [3], 109 % of control.

For `CS(=O)(=O)Nc1ccccc1[N+](=O)[O-]`, the T/C is, setting by setting: under setting [14], 109 % of control; under setting [8], 104 % of control and 115 % of control; under setting [10], 100 % of control.

Consider `CCOC(=O)c1ccccc1OP(=O)(N(C)C)N(C)C`, for which the T/C was 106 % of control under setting [14] and 122 % of control under setting [10].

Regarding `Clc1ccc2c(c1)nnn2OC1CCCC1`, the T/C reads like this: under setting [14], 97 % of control; under setting [8], 88 % of control; under setting [10], 90 % of control.

Consider `COC(=O)C1C2CCc3cc(OC)ccc3C2CCC1(C)C(=O)O` (stereo not drawn), for which the T/C runs as follows: (dose: 100.0 mg/kg/injection, schedule: Q01DX001 (ip), vehicle: saline sonified) 100 % of control; (dose: 200.0 mg/kg/injection, schedule: Q01DX001 (ip), vehicle: saline sonified) 104 % of control; (dose: 400.0 mg/kg/injection, schedule: Q01DX001 (ip), vehicle: saline sonified) 100 % of control.

For the molecule `Cc1ccc(S(=O)(=O)N(C)c2cc(Cl)c(C(N)=O)c(Cl)c2)cc1`, the T/C is 95 % of control (dose: 6.25 mg/kg/injection, schedule: Q01DX001 (ip), vehicle: saline sonified); 100 % of control (dose: 12.5 mg/kg/injection, schedule: Q01DX001 (ip), vehicle: saline sonified); 100 % of control (dose: 25.0 mg/kg/injection, schedule: Q01DX001 (ip), vehicle: saline sonified); 112 % of control under setting [14]; 95 % of control under setting [8]; 105 % of control under setting [9]. Further, the T/C was 114 % of control under setting [10], 97 % of control under setting [11], 95 % of control under setting [13] and 106 % of control under setting [12].

With `CC1(C)/C(=C/c2ccccc2)C(=O)c2ccccc21`, the T/C (dose: 12.5 mg/kg/injection, schedule: Q04DX003 (ip), vehicle: saline) is 107 % of control; the T/C under setting [3] is 118 % of control; the T/C under setting [4] was 91 % of control; the T/C under setting [5] is 103 % of control and 121 % of control; the T/C under setting [6] is 102 % of control and 112 % of control; the T/C under setting [7] was 110 % of control.

As for `COc1ccc(CN2COc3c(cc(C)c4cccnc34)C2)cc1`, the T/C by setting is: (dose: 12.5 mg/kg/injection, schedule: Q01DX009 (ip), vehicle: saline with Tween-80) 90 % of control; (dose: 25.0 mg/kg/injection, schedule: Q01DX009 (ip), vehicle: saline with Tween-80) 94 % of control; under setting [14], 92 % of control.

Regarding `NC1CC2C=CCC(C1)C2` (stereo not drawn), the T/C is, setting by setting: (dose: 37.5 mg/kg/injection, schedule: Q01DX001 (ip), vehicle: saline) 95 % of control; (dose: 75.0 mg/kg/injection, schedule: Q01DX001 (ip), vehicle: saline) 100 % of control; (dose: 150.0 mg/kg/injection, schedule: Q01DX001 (ip), vehicle: saline) 100 % of control.

Consider `NC(=O)c1csc(C2OC(CO)C(O)C2O)n1` (stereo not drawn), for which the T/C was 213 % of control (dose: 330.0 mg/kg/injection, schedule: Q01DX009 (ip), vehicle: water); 243 % of control (dose: 500.0 mg/kg/injection, schedule: Q01DX009 (ip), vehicle: water); 277 % of control (dose: 750.0 mg/kg/injection, schedule: Q01DX009 (ip), vehicle: water).

For `CC12NC(=O)NC1(C)NC(=O)N2` (stereo not drawn), the T/C is 100 % of control under setting [9] and 100 % of control under setting [11].

For the molecule `Cc1ncc([N+](=O)[O-])n1CCSC(=N)N`, the T/C runs as follows: under setting [9], 105 % of control; under setting [11], 105 % of control.

For the molecule `CC(=O)Nc1ccc2c(c1)OCO2`, the T/C runs as follows: under setting [14], 104 % of control; under setting [8], 104 % of control; under setting [9], 95 % of control; under setting [10], 90 % of control; under setting [11], 113 % of control.

With `Cc1ccc(N=NNc2ccc(C)cc2)cc1`, the T/C (dose: 100.0 mg/kg/injection, schedule: Q01DX001 (ip), vehicle: Klucel (hydroxypropylcellulose) (HPC)) is 104 % of control; the T/C (dose: 200.0 mg/kg/injection, schedule: Q01DX001 (ip), vehicle: Klucel (hydroxypropylcellulose) (HPC)) was 104 % of control; the T/C (dose: 400.0 mg/kg/injection, schedule: Q01DX001 (ip), vehicle: Klucel (hydroxypropylcellulose) (HPC)) is 112 % of control.
